The source of these data is publication doi:10.1101/2025.10.16.682859v2 (biorxiv, 2025).

Assay [1] has as its target T1, human asparagine synthetase (ASNS) (Homo sapiens, UniProt P08243).
T1 sequence (P08243 2-561): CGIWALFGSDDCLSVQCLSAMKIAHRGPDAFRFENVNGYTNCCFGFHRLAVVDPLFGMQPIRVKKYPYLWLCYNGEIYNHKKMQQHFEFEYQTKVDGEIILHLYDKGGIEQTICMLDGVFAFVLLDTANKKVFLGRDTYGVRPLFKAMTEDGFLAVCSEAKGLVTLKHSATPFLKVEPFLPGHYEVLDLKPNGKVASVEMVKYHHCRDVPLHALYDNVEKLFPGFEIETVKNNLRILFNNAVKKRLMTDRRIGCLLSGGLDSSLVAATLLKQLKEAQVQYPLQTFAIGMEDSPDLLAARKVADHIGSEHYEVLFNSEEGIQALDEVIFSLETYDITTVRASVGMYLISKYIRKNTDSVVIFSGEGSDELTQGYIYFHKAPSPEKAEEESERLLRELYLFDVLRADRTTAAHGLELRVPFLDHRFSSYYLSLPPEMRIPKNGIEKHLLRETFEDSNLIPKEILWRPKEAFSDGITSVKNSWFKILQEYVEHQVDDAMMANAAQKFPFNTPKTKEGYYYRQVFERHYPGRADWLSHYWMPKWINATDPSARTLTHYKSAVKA
In words: HPLC end-point assay of L-asparagine formation. It is filed as biochemical.

The target of assay [2] is T2, ASNS (endogenous, HEK-293A cells) (Homo sapiens, UniProt P08243).
T2 sequence (P08243 2-561): T1 sequence (P08243 2-561)
Kind of assay: cellular thermal shift, immunoblot. The assay is classed as cell-based. Conditions: cells treated with 50 nM for 1 h, lysate heated 25-90 °C. Background: Immunoblotting shows a protein as a band on a membrane.

In assay [3] the target is T3, human argininosuccinate synthetase (ASS1) (Homo sapiens, UniProt P00966).
T3 sequence (P00966 1-412): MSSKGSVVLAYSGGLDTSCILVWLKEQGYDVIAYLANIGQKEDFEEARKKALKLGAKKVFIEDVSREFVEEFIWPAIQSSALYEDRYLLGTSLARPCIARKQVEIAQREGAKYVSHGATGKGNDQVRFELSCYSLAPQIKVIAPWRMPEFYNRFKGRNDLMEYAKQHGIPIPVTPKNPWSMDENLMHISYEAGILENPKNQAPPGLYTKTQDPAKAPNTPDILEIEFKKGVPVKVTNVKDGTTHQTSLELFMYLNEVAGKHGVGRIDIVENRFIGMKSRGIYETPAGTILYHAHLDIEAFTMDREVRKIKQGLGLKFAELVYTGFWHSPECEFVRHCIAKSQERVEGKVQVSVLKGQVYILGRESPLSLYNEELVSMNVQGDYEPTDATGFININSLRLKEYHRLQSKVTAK
In words: differential scanning fluorimetry. The assay is classed as binding. Conditions: 5 mM ATP, 10 mM MgCl2, pH 8.0.

Each structure is given as a SMILES string.

For the compound `CC[C@H](N)C(=O)N1C[C@@H](c2ccc(F)cc2)[C@H](O)[C@@H]1C(=O)NC(c1ccccc1)c1ccccc1` [compound 17, ASX-173], in assay [1], the IC50 (usually the midpoint of a concentration-inhibition curve) turned out to be 500 ± 200 nM. The Tm in assay [2] is 45 to 54 °C. Consider `Nc1ncnc2c1ncn2[C@@H]1O[C@H](COP(=O)(O)OP(=O)(O)OP(=O)(O)O)[C@@H](O)[C@H]1O` [ATP], for which the Tm in assay [3] is 47 to 52 °C.
